The values that follow are results of earlier work, collected in patent US20240360175A1, “PEPTIDE DERIVATIVES AND RELATED USES AS OREXIN AGONISTS” (Centessa Pharmaceuticals (UK) Limited, priority 2021, published 2024).

Read-outs that look alike come from different tables or passages of the source.

Data set [1] concerns OX2R. Particulars: subcutaneous, cited from earlier work.
For another data set, the system named is individuals with NT1. Particulars: initial clinical studies; cited from earlier work.
In data set [2] the target is T1, OX2R (Mus musculus, UniProt P58308).
T1 construct: host or cells: mice in vivo (WT, orexin ligand-deficient, NT1 model, OX2R-knockout)
T1 sequence (P58308 1-460): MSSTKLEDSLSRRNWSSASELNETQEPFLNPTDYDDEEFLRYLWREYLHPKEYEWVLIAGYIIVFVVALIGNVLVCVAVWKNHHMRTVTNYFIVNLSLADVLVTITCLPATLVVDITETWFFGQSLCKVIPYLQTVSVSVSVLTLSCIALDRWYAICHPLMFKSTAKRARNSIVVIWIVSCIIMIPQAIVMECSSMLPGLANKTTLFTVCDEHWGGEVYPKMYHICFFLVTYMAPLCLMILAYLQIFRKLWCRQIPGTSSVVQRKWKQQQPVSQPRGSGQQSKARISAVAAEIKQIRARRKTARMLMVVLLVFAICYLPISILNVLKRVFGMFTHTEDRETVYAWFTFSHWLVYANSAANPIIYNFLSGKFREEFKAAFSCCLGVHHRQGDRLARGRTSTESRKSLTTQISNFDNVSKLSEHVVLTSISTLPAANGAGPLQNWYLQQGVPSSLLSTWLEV
Particulars: cited from earlier work.

On to `COC(=O)N1CCC[C@H](NS(C)(=O)=O)[C@@H]1CO[C@H]1CC[C@@H](c2ccccc2)CC1` [TAK-925], for which the wakefulness result was “not in OX2R-knockout mice” in the data set on OX2R [1] (OX2R-knockout mice), “modestly increased wakefulness” with OX2R [1] (WT mice) and “substantial levels of increased wakefulness” in the data set with individuals with NT1. Besides, in the data set with individuals with NT1, the cataplexy result was “trends for decreasing cataplexy”.

With `COc1ccc(-c2cccc(C(=O)N(C)C)c2)cc1S(=O)(=O)Nc1cccc(NCCNC(=O)c2ccccc2N(C)C)c1` [YNT-185], the “sleep-onset REM periods and cataplexy-like events” value at OX2R [2] (NT1 mouse model) was “decreases sleep-onset REM periods and cataplexy-like events”. Also, at OX2R [2] (intraperitoneally or ICV, wild type (WT) and orexin ligand-deficient mice), the wakefulness result is listed as “modestly increases wakefulness”.
